Source: patent publication US9296741B2, “Bromodomain inhibitors” (priority 2012, dated 2016)
pEC50, pKi: −log10 of the molar value.

Columns and labels:
[1] = system: breast cancer cell line MX-1; experiment: MX-1 cell line proliferation assay; assay type: cell-based, human; details: Homo sapiens, MX1, 72 h; MX-1 cells, 3-day proliferation, Cell Titer Glo; read-out: Cellular proliferation: EC50
[2] = target: human BRD4 first bromodomain (BDI_K57-E168) (Homo sapiens (Human), UniProt O60885); experiment: TR-FRET bromodomain binding assay, BRD4 first bromodomain
[3] = Human liver microsome stability assay; assay type: in vitro ADME; details: both sexes, human, microsomes, pH 7.4
[4] = Rat liver microsome stability assay; assay type: in vitro ADME; details: rat liver microsomes (male Sprague-Dawley), 0.5 μM test compound, 0.25 mg/mL microsomal protein, pH 7.4, 37° C.; read-out: Stability in rat liver microsomes (t1/2 in minutes)
[5] = target: human BRD4 second bromodomain (BDII_E352-M457) (Homo sapiens (Human), UniProt O60885); experiment: TR-FRET bromodomain binding assay, BRD4 second bromodomain
[6] = Mouse liver microsome stability assay; assay type: in vitro ADME; details: male, CD1, mouse, microsomes, pH 7.4
[7] = system: LPS induced IL-6 production; experiment: LPS (lipopolysaccharide) induced IL-6 production mouse assay; assay type: in vivo; details: 1 h before LPS, serum IL-6 2 h after LPS; for inhibition in vivo at 3 mg/kg: Mus musculus, read-out: Inhibition of LPS induced IL-6 production in Mice, % inhibition at 3 mg/kg, 3 mg/kg oral

Row | SMILES | pEC50 [1] | pKi [2] | half-life at 0.5 μM [3] [min] | half-life at 0.5 μM [4] [min] | pKi [5] | half-life at 0.5 μM [6] [min] | Inhibition of LPS induced IL-6 production in Mice, % inhibition at 50 mg/kg ([7]; 50 mg/kg oral) [% at 50 mg/kg] | inhibition in vivo at 3 mg/kg [7] [%] | Inhibition of LPS induced IL-6 production in Mice, % inhibition at 30 mg/kg ([7]; 30 mg/kg oral) [% at 30 mg/kg]
1 | Cn1cc(-c2cc(NS(=O)(=O)CC(F)(F)F)ccc2Oc2ccccc2)c2cc[nH]c2c1=O [Example 5, 2,2,2-trifluoro-N-[3-(6-methyl-7-oxo-6,7-dihydro-1H-pyrrolo[2,3-c]pyridin-4-yl)-4-phenoxyphenyl]ethanesulfonamide] | 7.51 | 7.82 | 100 | 6 | 8.19 | 24 | 74 |  | 
2 | Cn1cc(-c2cc(NS(C)(=O)=O)ccc2Oc2cccnc2)c2cc[nH]c2c1=O [Example 11, N-[3-(6-methyl-7-oxo-6,7-dihydro-1H-pyrrolo[2,3-c]pyridin-4-yl)-4-(pyridin-3-yloxy)phenyl]methanesulfonamide] | 7.47 | 8.74 | 48 | 19 | 8.62 | 27 |  | 34 | 
3 | Cn1cc(-c2cc(NS(C)(=O)=O)ccc2Oc2ccccc2C(F)(F)F)c2cc[nH]c2c1=O [Example 32, N-{3-(6-methyl-7-oxo-6,7-dihydro-1H-pyrrolo[2,3-c]pyridin-4-yl)-4-[2-(trifluoromethyl)phenoxy]phenyl}methanesulfonamide] | 7.08 | 7.80 | 24 | 82 | 8.12 | 32 |  | 69 | 
4 | Cn1cc(-c2cc(NS(C)(=O)=O)ccc2Oc2ccc(F)cc2Cl)c2cc[nH]c2c1=O [Example 34, N-[4-(2-chloro-4-fluorophenoxy)-3-(6-methyl-7-oxo-6,7-dihydro-1H-pyrrolo[2,3-c]pyridin-4-yl)phenyl]methanesulfonamide] | 7.57 | 8.46 | 37 | 42 | 8.68 | 35 |  | 78 | 
5 | Cn1cc(-c2cc(C(=O)N3CCOCC3)ccc2Oc2ccc(F)cc2F)c2cc[nH]c2c1=O [Example 56, 4-[2-(2,4-difluorophenoxy)-5-(morpholin-4-ylcarbonyl)phenyl]-6-methyl-1,6-dihydro-7H-pyrrolo[2,3-c]pyridin-7-one] | 6.60 | 7.91 | 39 | 30 | 8.62 | 36 |  | 28 | 
6 | Cn1nc(-c2cc(NS(C)(=O)=O)ccc2Oc2ccccc2)c2cc[nH]c2c1=O [Example 80, N-[3-(6-methyl-7-oxo-6,7-dihydro-1H-pyrrolo[2,3-d]pyridazin-4-yl)-4-phenoxyphenyl]methanesulfonamide] | 7.21 | 8.04 | 62 | 2 | 8.21 | 31 |  |  | 69
7 | CCS(=O)(=O)Nc1ccc(Oc2ccc(C(N)=O)cc2)c(-c2cn(C)c(=O)c3[nH]ccc23)c1 [Example 84, 4-{4-[(ethylsulfonyl)amino]-2-(6-methyl-7-oxo-6,7-dihydro-1H-pyrrolo[2,3-c]pyridin-4-yl)phenoxy}benzamide] | 6.64 | 8.78 | 112 | 92 | 9.19 | > 120 |  | 69 | 
8 | Cn1cc(-c2cc(S(C)(=O)=O)ccc2Oc2ccccc2)c2cc[nH]c2c1=O [Example 85, 6-methyl-4-[5-(methylsulfonyl)-2-phenoxyphenyl]-1,6-dihydro-7H-pyrrolo[2,3-c]pyridin-7-one] | 7.28 | 8.19 | 43 | 6 | 8.77 | 34 |  | 80 | 
9 | Cn1cc(-c2cc(S(C)(=O)=O)ccc2Oc2ccc(F)cc2F)c2cc[nH]c2c1=O [Example 138, 4-[2-(2,4-difluorophenoxy)-5-(methylsulfonyl)phenyl]-6-methyl-1,6-dihydro-7H-pyrrolo[2,3-c]pyridin-7-one] | 7.07 | 7.78 | 52 | 51 | 8.02 | 45 |  | 72 | 
10 | CCS(=O)(=O)Nc1ccc(OCC(C)(C)C)c(-c2cn(C)c(=O)c3[nH]ccc23)c1 [Example 144, N-[4-(2,2-dimethylpropoxy)-3-(6-methyl-7-oxo-6,7-dihydro-1H-pyrrolo[2,3-c]pyridin-4-yl)phenyl]ethanesulfonamide] | 7.11 | 7.87 | 18 | 19 | 7.75 | 17 |  | 48 | 
11 | Cn1cc(-c2cc(CS(C)(=O)=O)ccc2NCC2CC2)c2cc[nH]c2c1=O [Example 328, 4-{2-[(cyclopropylmethyl)amino]-5-[(methylsulfonyl)methyl]phenyl}-6-methyl-1,6-dihydro-7H-pyrrolo[2,3-c]pyridin-7-one] | 7.37 |  | > 120 | 36 |  | > 120 |  | 40 | 

Compounds with a higher pEC50 [1], results first:

Row | pEC50 [1] | pKi [2] | half-life at 0.5 μM [3] [min] | half-life at 0.5 μM [4] [min] | pKi [5] | half-life at 0.5 μM [6] [min] | SMILES | Inhibition of LPS induced IL-6 production in Mice, % inhibition at 50 mg/kg ([7]; 50 mg/kg oral) [% at 50 mg/kg] | inhibition in vivo at 3 mg/kg [7] [%] | Inhibition of LPS induced IL-6 production in Mice, % inhibition at 30 mg/kg ([7]; 30 mg/kg oral) [% at 30 mg/kg]
12 | 7.59 | 7.94 | 88 | > 120 | 8.31 | 11 | CNS(=O)(=O)Nc1ccc(Oc2ccc(F)cc2F)c(-c2cn(C)c(=O)c3[nH]ccc23)c1 [Example 65, N-[4-(2,4-difluorophenoxy)-3-(6-methyl-7-oxo-6,7-dihydro-1H-pyrrolo[2,3-c]pyridin-4-yl)phenyl]-N′-methylsulfuric diamide] |  | 63 | 
13 | 7.63 | 8.64 | 37 | 32 | 8.48 | 35 | Cn1cc(-c2cc(NS(C)(=O)=O)ccc2Oc2ccc(F)c(F)c2)c2cc[nH]c2c1=O [Example 48, N-[4-(3,4-difluorophenoxy)-3-(6-methyl-7-oxo-6,7-dihydro-1H-pyrrolo[2,3-c]pyridin-4-yl)phenyl]methanesulfonamide] |  | 62 | 
14 | 7.71 | 8.77 | 71 | 51 | 8.82 | 46 | Cn1cc(-c2cc(NS(C)(=O)=O)ccc2Oc2c(F)cc(F)cc2F)c2cc[nH]c2c1=O [Example 49, N-[3-(6-methyl-7-oxo-6,7-dihydro-1H-pyrrolo[2,3-c]pyridin-4-yl)-4-(2,4,6-trifluorophenoxy)phenyl]methanesulfonamide] |  | 57 | 
15 | 7.73 | 9.08 | > 120 | 40 | 8.80 | 23 | Cn1cc(-c2cc(NS(C)(=O)=O)ccc2OC2CCC(F)(F)CC2)c2cc[nH]c2c1=O [Example 59, N-{4-[(4,4-difluorocyclohexyl)oxy]-3-(6-methyl-7-oxo-6,7-dihydro-1H-pyrrolo[2,3-c]pyridin-4-yl)phenyl}methanesulfonamide] |  | 54 | 
16 | 7.77 |  | > 120 | > 120 |  | > 120 | Cn1cc(-c2cc(S(C)(=O)=O)ccc2NCC2CC2)c2cc[nH]c2c1=O [Example 329, 4-{2-[(cyclopropylmethyl)amino]-5-(methylsulfonyl)phenyl}-6-methyl-1,6-dihydro-7H-pyrrolo[2,3-c]pyridin-7-one] |  | 63 | 
17 | 7.83 | 8.68 | 11 | 8 | 8.96 | 32 | Cn1cc(-c2cc(S(C)(=O)=O)ccc2NC2CCCCC2)c2cc[nH]c2c1=O [Example 147, 4-[2-(cyclohexylamino)-5-(methylsulfonyl)phenyl]-6-methyl-1,6-dihydro-7H-pyrrolo[2,3-c]pyridin-7-one] |  | 61 | 
18 | 8.03 | 8.89 |  |  | 8.80 | 55 | CCS(=O)(=O)c1ccc(OCC2CC2)c(-c2cn(C)c(=O)c3[nH]ccc23)c1 [Example 198, 4-[2-(cyclopropylmethoxy)-5-(ethylsulfonyl)phenyl]-6-methyl-1,6-dihydro-7H-pyrrolo[2,3-c]pyridin-7-one] |  | 66 | 
19 | 8.10 | 8.52 | 64 | 45 | 8.72 | 25 | CCS(=O)(=O)Nc1ccc(Oc2c(F)cc(F)cc2F)c(-c2cn(C)c(=O)c3[nH]ccc23)c1 [Example 62, N-[3-(6-methyl-7-oxo-6,7-dihydro-1H-pyrrolo[2,3-c]pyridin-4-yl)-4-(2,4,6-trifluorophenoxy)phenyl]ethanesulfonamide] |  | 67 | 
